# In BindingDB's records for doi:10.1021/jm00121a004 (Merck Sharp & Dohme Research Laboratories, 1989):
# Experiments:
# [1] = Displacement of 125 I-gastrin from gastrin receptor of guinea pig gastric glands
# [2] = as above; remark: listed apart in the source
# [3] = Displacement of [125 I] CCK-8 from Cholecystokinin type B receptor of guinea pig cerebral cortex
SMILES,IC50 [1] [µM],IC50 [2] [µM],IC50 [3] [µM]
CCOC(=O)CN1C(=O)C(NC(=O)Nc2ccc(Cl)cc2)N=C(c2ccccc2F)c2ccccc21 (centres undefined),0.0041,–,–
O=C(Nc1ccc(Cl)cc1)NC1N=C(c2ccccc2F)c2ccccc2NC1=O (centres undefined),–,0.64,0.3
CN1C(=O)[C@@H](NC(=O)c2ccc(Cl)cc2)N=C(c2ccccc2F)c2ccccc21,–,2.5,2.9
CN1C(=O)[C@H](NC(=O)c2ccc(Cl)cc2)N=C(c2ccccc2F)c2ccccc21,7.6,–,11
"CN1C(=O)C(NC(=O)Nc2ccc(Cl)cc2)N=C(c2ccccc2)c2ccccc21 [(R)-1-(4-Chloro-phenyl)-3-(1-methyl-2-oxo-5-phenyl-2,3-dihydro-1H-benzo[e][1,4]diazepin-3-yl)-urea]",0.022,–,0.023
